Reference: US20110195402A1, “SYSTEMS AND METHODS FOR DETECTING DRUG USE” (priority 2010, published 2011)
Where “and” joins values, the source holds several entries; their conditions need not be identical. Equal entries are not always repeated.

T1: lysozyme (Homo sapiens, UniProt P61626)
T1 sequence (P61626 19-148): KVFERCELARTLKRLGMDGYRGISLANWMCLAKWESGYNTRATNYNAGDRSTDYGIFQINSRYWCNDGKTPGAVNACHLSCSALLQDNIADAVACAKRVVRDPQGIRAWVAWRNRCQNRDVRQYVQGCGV

T2: α-amylase (Homo sapiens, UniProt P0DUB6)
T2 sequence (P0DUB6 16-511): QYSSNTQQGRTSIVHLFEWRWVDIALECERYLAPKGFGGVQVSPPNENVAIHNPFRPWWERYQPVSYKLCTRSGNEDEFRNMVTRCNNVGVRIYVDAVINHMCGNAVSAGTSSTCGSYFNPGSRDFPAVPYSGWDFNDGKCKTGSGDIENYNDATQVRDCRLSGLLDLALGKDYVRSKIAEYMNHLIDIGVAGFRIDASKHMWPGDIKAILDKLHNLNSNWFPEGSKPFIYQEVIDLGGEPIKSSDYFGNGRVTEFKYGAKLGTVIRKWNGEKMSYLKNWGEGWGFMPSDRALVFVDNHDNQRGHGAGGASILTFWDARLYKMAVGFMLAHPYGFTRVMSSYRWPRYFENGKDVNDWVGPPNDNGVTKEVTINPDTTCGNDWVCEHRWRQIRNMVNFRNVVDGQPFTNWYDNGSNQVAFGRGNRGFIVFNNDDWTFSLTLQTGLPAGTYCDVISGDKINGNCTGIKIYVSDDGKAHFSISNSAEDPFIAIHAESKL

B1: Soybeans: primary soybean protease inhibitor, 20.7-22.3 kDa (protein, UniProt P01070 25-205, looked up)
Trypsin inhibitor A: DFVLDNEGNPLENGGTYYILSDITAFGGIRAAPTGNERCPLTVVQSRNELDKGIGTIISSPYRIRFIAEGHPLSLKFDSFAVIMLCVGIPTEWSVVEDLPEGPAVKIGENKDAMDGWFRLERVSDDEFNNYKLVFCPQQAEDDKCGDIGISIDHDDGTRRLVVSKNKPLVVQFQKLDKESL

Assays:
[1] = system: peroxidase; test: Peroxidase assay in saliva (Amplex Red); type: biochemical; conditions: test compound at 500 ppm, pooled or unpooled saliva, 30 minutes; FIGS. 26-29
Method: To determine the effect of various GRAS compounds as inhibitors of peroxidase activity, a standard assay using Amplex® Red (Life Technologies), which releases a fluorescent oxidation product.
The test compounds, such as GRAS materials or cocktails of same, were prepared at a concentration of 500 ppm in distilled water. For the assay, 50 μl samples of test compounds were mixed with 20-30 μl of saliva (either “pooled” or “unpooled”) prior to the addition of Amplex® Red. […] Reactions were allowed to run for 30 minutes during these assays.

[2] = target: T1, lysozyme; test: Lysozyme inhibition saliva screening (fluorescein-labeled Micrococcus lysodeikticus); type: biochemical; conditions: 100% saliva samples (data not shown)
Text: Further details of these five compounds may also be seen in Table 5.

[3] = target: T2, α-amylase; test: α-Amylase inhibition saliva screening (2-chloro-p-nitrophenol-maltotriose substrate, 405 nm); type: biochemical; conditions: for Ave (reading, absorbance at 405 nm) / reading (absorbance at 405 nm), single replicates: test compound prepared at 5,000 ppm, 37° C., control column '100% Saliva'; for inhibition of α-Amylase: 100% saliva samples, FIG. 11; for α-Amylase Inhibitor Activity: dilute (3.5%) saliva, FIG. 10
Text: Further details of these five compounds may also be seen in Table 4.

[4] = system: protease; conditions: natural protease inhibitor; Table II; cited from earlier work

Molecule	peroxidase inhibition [1]	Ave (reading, absorbance at 405 nm) ([3]; 0 min)	inhibition of α-Amylase [3]	Ave (reading, absorbance at 405 nm) ([3]; 5 min)	Ave (reading, absorbance at 405 nm) ([3]; 15 min)	α-Amylase Inhibitor Activity [3]	other results
COc1ccc(O)c(C(C)(C)C)c1 [CDI-39, 3-tert--butyl-hydroxyanisole]	significant peroxidase inhibition capabilities	–	–	–	–	–	–
O=C(O)c1ccccc1 [CDI-40, Benzoic acid]	–	–	–	–	–	–	inhibition of Lysozyme [2]: inhibit Lysozyme
Cn1c(=O)c2c(ncn2C)n(C)c1=O [CDI-33, Caffeine]	significant peroxidase inhibition capabilities	–	–	–	–	–	–
Aluminum sulfate hydrate [CDI-34]	–	0.40	inhibit α-Amylase	0.50	0.56	α-Amylase Inhibitor Activity	reading (absorbance at 405 nm), single replicates ([3]; 0 min, sulfate hydrate): 0.40 (2×) and 0.36 and 0.45; reading (absorbance at 405 nm), single replicates ([3]; 5 min, sulfate hydrate): 0.49 and 0.50 (2×) and 0.52; reading (absorbance at 405 nm), single replicates ([3]; 15 min, sulfate hydrate): 0.53 and 0.61 and 0.54 and 0.56
Aluminum potassium sulfate dodecahydrate [CDI-42]	significant peroxidase inhibition capabilities	0.92	inhibit α-Amylase	1.85	2.29	α-Amylase Inhibitor Activity	reading (absorbance at 405 nm), single replicates ([3]; 0 min): 0.80 and 1.13 and 0.90 and 0.84; reading (absorbance at 405 nm), single replicates ([3]; 5 min): 1.65 and 2.15 and 1.80 and 1.81; reading (absorbance at 405 nm), single replicates ([3]; 15 min): 2.37 and 2.38 and 2.25 and 2.17
B1	–	–	–	–	–	–	Inhibitory power [4]: 1.2 times times weight
